Legend:
hERG channel = target: T1, hERG channel (Homo sapiens, UniProt Q12809); experiment: hERG channel inhibition assay (patch-clamp, CHO hERG cells); type: cell-based; conditions: for IC50 / IC20: CHO hERG cells, whole-cell patch-clamp; for IC20: human, CHO cells stably expressing hERG; for hERG IC20/TLR7 IC50 / hERG IC20/TLR8 IC50 / hERG IC20/TLR9 IC50: safety ratio
T1 construct: expressed in transfected cells
Experimental: hERG Channel Inhibition Assay:
The hERG K+ channels were cloned in humans and stably expressed in a CHO (Chinese hamster ovary) cell line. CHOhERG cells were used for patch-clamp (voltage-clamp, whole-cell) experiments. Cells were stimulated by a voltage pattern to activate hERG channels and conduct IKhERG Currents (rapid delayed outward rectifier potassium current of the hERG channel). After the cells were stabilized for a few minutes, the amplitude and kinetics of IKhERG were recorded at a stimulation frequency of 0.1 Hz, (6 bpm). Thereafter, the test compound was added to the preparation at increasing concentrations. For each concentration, an attempt was made to reach a steady-state effect, usually, this was achieved within 3-10 min at which time the next highest concentration was applied. The amplitude and kinetics of IKhERG are recorded in each concentration of the drug which were compared to the control values (taken as 100%). (references: Redfern W S, Carlsson L, Davis A S, Lynch W G, MacKenzie I, Palethorpe S, Siegl P K, Strang I, Sullivan A T, Wallis R, Camm A J, Hammond T G. 2003; Relationships between preclinical cardiac electrophysiology, clinical QT interval prolongation and torsade de pointes for a broad range of drugs: evidence for a provisional safety margin in drug development. Cardiovasc. Res. 58:32-45, Sanguinetti M C, Tristani-Firouzi M. 2006; hERG potassium channels and cardiac arrhythmia. Nature 440:463-469, Webster R, Leishman D, Walker D. 2002; Towards a drug concentration effect relationship for QT prolongation and torsades de pointes. Curr. Opin. Drug Discov. Devel. 5:116-26).

CYP2C9 = target: T2, CYP2C9 (Homo sapiens, UniProt P11712); experiment: CYP inhibition assay in human liver microsome, CYP2C9; type: in vitro ADME; conditions: percentage inhibition, substrate Diclofenac 5 μM, <0: not or weak inhibitor
T2 construct: tissue BD-Gentest 452117; host or cells: human liver microsomes
T2 sequence (P11712 whole entry): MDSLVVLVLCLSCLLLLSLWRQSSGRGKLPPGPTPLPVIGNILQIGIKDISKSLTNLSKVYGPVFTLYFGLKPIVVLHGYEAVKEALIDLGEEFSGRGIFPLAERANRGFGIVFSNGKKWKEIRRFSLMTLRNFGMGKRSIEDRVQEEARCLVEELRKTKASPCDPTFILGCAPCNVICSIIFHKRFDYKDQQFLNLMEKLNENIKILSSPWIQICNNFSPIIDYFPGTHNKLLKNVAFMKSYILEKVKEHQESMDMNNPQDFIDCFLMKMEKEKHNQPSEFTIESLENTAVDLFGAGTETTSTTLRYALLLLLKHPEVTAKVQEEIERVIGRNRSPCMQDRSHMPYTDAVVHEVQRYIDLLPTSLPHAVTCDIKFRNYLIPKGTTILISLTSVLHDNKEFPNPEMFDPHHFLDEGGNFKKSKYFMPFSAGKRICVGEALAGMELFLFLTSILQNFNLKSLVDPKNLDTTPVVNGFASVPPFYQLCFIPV
Experimental: This is a high throughput screening assay used for assessment of reversible inhibition of CYP2C9, CYP2D6, and CYP3A4 activity of test compounds in human liver microsome (HLM) in early discovery stage.
Procedure 10 mM DMSO stock solutions of test compounds were diluted in DMSO to generate 2 mM intermediate stock solution. 250 nL of intermediate stock solution were transferred in duplicate into 3 separate 384 well microtitre plates (assay-ready plates). A mixture of HLM and each substrate was made up. 45 μL of HLM substrate mix was then transferred to each well of an assay ready plate and mixed. The negative (solvent) and positive controls (standard inhibitor for each CYP) were included in each assay ready plate. The assay ready plate was warmed to 37° C. in an incubator over 10 minutes. 5 μL pre-warmed NADPH regenerating system was added to each incubation well to start the reaction. Final incubation volume was 50 μL. The assay plate then was placed back in the 37° C. incubator. After incubation (10 minutes for CYP2D6) for 5 minutes, incubates were quenched by addition of 50 μL 100% acetonitrile containing internal standards (400 ng/mL 13C6-4′-OH-Diclofenac, 20 ng/mL D3-Dextrorphan and 20 ng/mL D4-1′OH-Midazolam). The supernatants were collected for RapidFire/MS/MS analysis.
RapidFire online solid phase extraction/sample injection system (Agilent) coupled with API4000 triple quadrupole mass spectrometer (AB Sciex) were used for sample analysis. The mobile phase composed of acetonitrile and water supplemented with 0.1% formic acid. A C4 solid phase extraction cartridge is used for sample separation. MS detection is achieved in positive ion MRM mode.
Data analysis Peak areas for substrate, metabolite and internal standard are determined using the RapidFire integrator software (version 3.6.12009.12296). Peak area ratios (PAR) of metabolite and internal standard (stable-labelled metabolite) are then calculated. The measurement window for each experiment is then defined: PAR (0% activity)=average PAR for all incubations containing concentrated inhibitor; Par (100% activity)=average PAR for all incubations containing no inhibitor (DMSO controls); % Activity (test inhibitor)=[PAR (test inhibitor)-PAR (0% activity)]/[PAR (100% activity)-PAR (0% activity)]; % Inhibition (test inhibitor)=100-% Activity (test inhibitor).

T1 sequence (Q12809 whole entry): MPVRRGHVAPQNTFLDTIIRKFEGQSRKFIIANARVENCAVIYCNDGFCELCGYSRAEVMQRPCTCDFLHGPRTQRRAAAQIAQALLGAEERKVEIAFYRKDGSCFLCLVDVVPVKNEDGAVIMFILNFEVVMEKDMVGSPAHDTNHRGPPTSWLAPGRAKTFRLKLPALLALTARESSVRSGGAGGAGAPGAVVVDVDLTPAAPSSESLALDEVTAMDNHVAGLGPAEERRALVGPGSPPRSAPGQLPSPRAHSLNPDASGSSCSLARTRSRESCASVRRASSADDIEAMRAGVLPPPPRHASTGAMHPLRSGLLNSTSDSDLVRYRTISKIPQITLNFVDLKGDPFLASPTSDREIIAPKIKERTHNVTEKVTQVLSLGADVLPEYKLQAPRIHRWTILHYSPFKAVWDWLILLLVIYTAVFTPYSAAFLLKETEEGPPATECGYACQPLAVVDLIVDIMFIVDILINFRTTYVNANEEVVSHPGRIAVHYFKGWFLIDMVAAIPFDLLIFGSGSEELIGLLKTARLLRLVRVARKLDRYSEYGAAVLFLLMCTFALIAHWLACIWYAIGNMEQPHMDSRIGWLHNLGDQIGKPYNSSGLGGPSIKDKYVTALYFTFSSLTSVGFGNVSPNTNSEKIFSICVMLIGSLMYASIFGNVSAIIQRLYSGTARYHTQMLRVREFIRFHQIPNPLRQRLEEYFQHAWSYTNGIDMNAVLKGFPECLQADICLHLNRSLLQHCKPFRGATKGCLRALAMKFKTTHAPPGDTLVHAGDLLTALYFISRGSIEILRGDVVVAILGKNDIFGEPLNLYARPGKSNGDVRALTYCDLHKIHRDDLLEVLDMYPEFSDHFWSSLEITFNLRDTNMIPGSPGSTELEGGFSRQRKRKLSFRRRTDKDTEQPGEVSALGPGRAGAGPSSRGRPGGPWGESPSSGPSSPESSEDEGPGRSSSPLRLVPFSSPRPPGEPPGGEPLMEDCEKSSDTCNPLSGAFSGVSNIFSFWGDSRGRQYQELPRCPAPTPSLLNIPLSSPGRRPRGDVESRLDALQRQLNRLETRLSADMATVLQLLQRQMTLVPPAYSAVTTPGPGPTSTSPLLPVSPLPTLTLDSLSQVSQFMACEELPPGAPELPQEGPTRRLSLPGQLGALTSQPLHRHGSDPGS

CYP (%) 2C9 (CYP2C9) [%]	Structure (SMILES)	IC50 (hERG channel) [µM]	IC20 (hERG channel) [µM]	hERG IC20/TLR7 IC50 (hERG channel)	hERG IC20/TLR8 IC50 (hERG channel)	hERG IC20/TLR9 IC50 (hERG channel)
0	C[C@@H]1CN(c2ccc(C#N)n3nccc23)C[C@H](CN2CC3(C2)OCc2cc(N4CC5(CNCCO5)C4)ccc23)O1 [Example 7, 4-[(2R,6S)-2-methyl-6-[[6-(5-oxa-2,8-diazaspiro[3.5]nonan-2-yl)spiro[1H-isobenzofuran-3,3′-azetidine]-1′-yl]methyl]morpholin-4-yl]pyrazolo[1,5-a]pyridine-7-carbonitrile]	–	–	–	–	–
3.5	[2H]c1ccc2c(N3C[C@H](CN4CC5(C4)OCc4cc(N6C[C@H]7NCCO[C@@H]7C6)ccc45)O[C@H](C)C3)ccc(C#N)c2n1 [Example 17, 5-[(2S,6R)-2-[[6-[(4aR,7aR)-3,4,4a,5,7,7a-hexahydro-2H-pyrrolo[3,4-b][1,4]oxazin-6-yl]spiro[1H-isobenzofuran-3,3′-azetidine]-1′-yl]methyl]-6-methyl-morpholin-4-yl]-2-deuterio-quinoline-8-carbonitrile]	–	–	–	–	–
21	C[C@@H]1CN(c2ccc(C#N)n3ncc(F)c23)C[C@H](CN2CC3(C2)OCc2cc(N4CC(C)(N)C4)ncc23)O1 [Example 24, 4-[(2S,6R)-2-[[6-(3-amino-3-methyl-azetidin-1-yl)spiro[1H-furo[3,4-c]pyridine-3,3′-azetidine]-1′-yl]methyl]-6-methyl-morpholin-4-yl]-3-fluoro-pyrazolo[1,5-a]pyridine-7-carbonitrile]	–	–	–	–	–

The remaining lines, values behind:

Structure (SMILES)	CYP (%) 2C9 (CYP2C9) [%]	IC50 (hERG channel) [µM]	IC20 (hERG channel) [µM]	hERG IC20/TLR7 IC50 (hERG channel)	hERG IC20/TLR8 IC50 (hERG channel)	hERG IC20/TLR9 IC50 (hERG channel)
C[C@@H]1CN(c2ccc(C#N)n3ncc(F)c23)C[C@H](CN2CC3(C2)OCc2cc(N4CC5(CN(C)C5)C4)ccc23)O1 [Example 2, 3-fluoro-4-[(2R,6S)-2-methyl-6-[[6-(6-methyl-2,6-diazaspiro[3.3]heptan-2-yl)spiro[1H-isobenzofuran-3,3′-azetidine]-1′-yl]methyl]morpholin-4-yl]pyrazolo[1,5-a]pyridine-7-carbonitrile]	–	> 20	9.9	990	396	220
[2H]c1ccc2c(N3C[C@H](CN4CC5(C4)OCc4cc(N6CC(N)C6)cnc45)O[C@H](C)C3)ccc(C#N)c2n1 [Example 20, 5-[(2S,6R)-2-[[3-(3-aminoazetidin-1-yl)spiro[5H-furo[3,4-b]pyridine-7,3′-azetidine]-1′-yl]methyl]-6-methyl-morpholin-4-yl]-2-deuterio-quinoline-8-carbonitrile]	13.5	–	–	–	–	–
[2H]c1ccc2c(N3C[C@H](CN4CC5(C4)OCc4cc(N6CC(C)(N)C6)cnc45)O[C@H](C)C3)ccc(C#N)c2n1 [Example 21, 5-[(2S,6R)-2-[[3-(3-amino-3-methyl-azetidin-1-yl)spiro[5H-furo[3,4-b]pyridine-7,3′-azetidine]-1′-yl]methyl]-6-methyl-morpholin-4-yl]-2-deuterio-quinoline-8-carbonitrile]	4.5	> 20	> 10	>1428	>588	>181

From US12421252B2, “Spiro (isobenzofuranazetidine) compounds for the treatment of autoimmune disease” (Hoffmann-La Roche Inc., priority 2020, dated 2025)
